Source: EP0639573A1, “Benzocondensed five membered heterocycles, process of their preparation, their use as drug, as diagnostic means and pharmaceuticals containing it” (HOECHST AKTIENGESELLSCHAFT, priority 1993, dated 1995)
pIC50: −log10 of the molar value. Counter-ions that a name gives are not always drawn.

Legend:
Rattenherzen = details: isolated rat hearts; Eur. Heart J. 9 (suppl. 1): 167 (1988); cited from earlier work
Na⁺/H⁺-Exchanger = molecular target: T1, Na⁺/H⁺-Exchanger (Oryctolagus cuniculus, UniProt P23791); test: Inhibition of the Na+/H+ exchanger of rabbit erythrocytes (amiloride-sensitive Na+ influx, flame photometry); assay type: cell-based, Kaninchen; details: Kaninchenerythrocyten; hyperosmolar salt-sucrose medium, pH 7,4, 37°C; rabbits on 2% cholesterol diet; read-out: IC₅₀
T1 construct: den Na⁺-Influx in die Erythrocyten via Na⁺/H⁺-Austausch flammenphotometrisch bestimmen zu können; from tissue; host or cells: Erythrocytes in whole blood from ear arteries of cholesterol-fed White New Zealand rabbits (Ivanovas)
T1 sequence (P23791 whole entry): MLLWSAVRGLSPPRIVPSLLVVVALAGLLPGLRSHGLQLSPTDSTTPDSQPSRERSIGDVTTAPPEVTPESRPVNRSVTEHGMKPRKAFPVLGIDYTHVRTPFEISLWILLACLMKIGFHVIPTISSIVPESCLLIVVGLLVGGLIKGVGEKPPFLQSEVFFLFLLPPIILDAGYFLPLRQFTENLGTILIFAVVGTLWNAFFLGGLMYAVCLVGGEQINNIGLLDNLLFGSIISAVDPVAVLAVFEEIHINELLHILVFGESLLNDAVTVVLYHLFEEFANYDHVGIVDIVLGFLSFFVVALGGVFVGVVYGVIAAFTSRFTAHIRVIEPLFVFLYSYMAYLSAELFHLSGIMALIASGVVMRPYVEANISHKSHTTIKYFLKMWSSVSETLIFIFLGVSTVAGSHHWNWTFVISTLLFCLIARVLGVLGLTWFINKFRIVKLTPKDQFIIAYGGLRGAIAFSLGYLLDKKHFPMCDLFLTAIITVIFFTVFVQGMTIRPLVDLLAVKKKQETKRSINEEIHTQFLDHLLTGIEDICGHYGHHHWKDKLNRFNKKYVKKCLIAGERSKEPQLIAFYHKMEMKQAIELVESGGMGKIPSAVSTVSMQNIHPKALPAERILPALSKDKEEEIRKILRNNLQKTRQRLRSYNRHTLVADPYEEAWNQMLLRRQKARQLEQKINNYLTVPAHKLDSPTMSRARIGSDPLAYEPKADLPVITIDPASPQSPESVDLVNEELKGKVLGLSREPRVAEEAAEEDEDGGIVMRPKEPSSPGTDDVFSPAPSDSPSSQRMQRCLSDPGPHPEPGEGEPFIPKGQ
From the text: Inhibition des Na⁺/H⁺-Exchangers von Kaninchenerythrocyten
Weiße Neuseeland-Kaninchen (Ivanovas) erhielten eine Standard-Diät mit 2% Cholesterin für sechs Wochen, um den Na⁺/H⁺-Austausch zu aktivieren und so den Na⁺-Influx in die Erythrocyten via Na⁺/H⁺-Austausch flammenphotometrisch bestimmen zu können. Das Blut wurde den Ohrarterien entnommen und durch 25 IE Kalium-Heparin ungerinnbar gemacht. Ein Teil jeder Probe wurde zur Doppelbestimmung des Hämatokrits durch Zentrifugieren benutzt. Aliquots von jeweils 100 µl dienten zur Messung des Na⁺-Ausgangsgehalts der Erythrocyten.
Um den Amilorid-sensitiven Natrium-Influx zu bestimmen, wurden 100 µl jeder Blutprobe in jeweils 5 ml eines hyperosmolaren Salz-Sucrose-Mediums (mmol/l: 140 NaCl, 3 KCl, 150 Sucrose, 0,1 Ouabain, 20 Tris-hydroxymethylaminomethan) bei pH 7,4 und 37°C inkubiert. Die Erythrocyten wurden danach dreimal mit eiskalter MgCl₂-Ouabain-Lösung (mmol/l: 112 MgCl₂, 0,1 Ouabain) gewaschen und in 2,0 ml destilliertem Wasser hämolysiert. Der intrazelluläre Natriumgehalt wurde flammenphotometrisch bestimmt.
Der Na⁺ -Nettoinflux wurde aus der Differenz zwischen Natrium-Ausgangswerten und dem Natriumgehalt der Erythrocyten nach Inkubation errechnet. Der Amilorid-hemmbare Natrium-Influx ergab sich aus der Differenz des Natriumgehalts der Erythrocyten nach Inkubation mit und ohne Amilorid 3 x 10⁻⁴ mol/l. Auf diese Weise wurde auch bei den erfindungsgemäßen Verbindungen verfahren.

Row | Compound | künstlich ausgelöstes Kammerflimmern (Rattenherzen) | pIC50 (Na⁺/H⁺-Exchanger)
1 | NC(N)=NC(=O)c1nc(Cl)c(N)nc1N [Amilorid] | völlig unterdrückt | 
2 | CCn1c(C(=O)N=C(N)N)cc2cc(Cl)ccc21 [Beispiel 52, 5-Chlor-1-ethyl-2-indolylcarbonyl-guanidin-hydrochlorid] |  | 7.40
3 | CCCn1c(C(=O)N=C(N)N)cc2cc(Cl)ccc21 [Beispiel 53, 5-Chlor-1-propyl-2-indolylcarbonyl-guanidin-hydrochlorid] |  | 7.30
4 | CCCCn1c(C(=O)N=C(N)N)cc2cc(Cl)ccc21 [Beispiel 54, 5-Chlor-1-butyl-2-indolylcarbonyl-guanidin-hydrochlorid] |  | 6.70
5 | NC(N)=NC(=O)c1cc2cc(Cl)ccc2n1Cc1ccncc1 [Beispiel 61, 5-Chlor-1-(4-picolyl)-2-indolylcarbonyl-guanidin-dihydrochlorid] |  | 6.52
6 | Cn1c(C(=O)N=C(N)N)c(Cl)c2cc(Cl)ccc21 [Beispiel 69, 3,5-Dichlor-1-methyl-2-indolylcarbonyl-guanidin-hydrochlorid] |  | 7.30
7 | Cn1c(C(=O)N=C(N)N)c(Cl)c2cc(F)ccc21 [Beispiel 86, 3-Chlor-5-fluor-1-methylindolyl-2-carbonsäureguanidid Hydrochlorid] |  | 7.52
8 | CN1c2ccccc2CC1C(=O)N=C(N)N (stereo not shown) [Beispiel 104, 1-Methylindolin-2-carbonsäure-guanidid-hydrochlorid] |  | 6.70
9 | CN1c2ccc(F)cc2CC1C(=O)N=C(N)N (stereo not shown) [Beispiel 106, 5-Fluor-1-methylindolin-2-carbonsäureguanidid Hydrochlorid] |  | 7.30
10 | CCN(c1nc(N)c(C(=O)N=C(N)N)nc1Cl)C(C)C [Ethylisopropylamilorid] | Noch potenter als Amilorid | 
